The values below come from BindingDB's records for doi:10.1021/acs.jmedchem.7b01708 (Duquesne University, 2018).

Structures are written as SMILES.

Experiment [1] in a line: Binding affinity to human FR-alpha receptor expressed in Chinese hamster RT16 cells assessed as antiproliferative activity measured as reduction in cell viability after 96 hrs in presence of folic acid by Cell-Titer Blue assay.
A short description of experiment [2]: Binding affinity to human FR-beta receptor expressed in Chinese hamster D4 cells assessed as antiproliferative activity measured as reduction in cell viability after 96 hrs in presence of folic acid by Cell-Titer Blue assay.
The nature of experiment [3]: Binding affinity to human PCFT expressed in Chinese hamster R2/PCFT4 cells assessed as antiproliferative activity measured as reduction in cell viability after 96 hrs by Cell-Titer Blue assay.
Experiment [4] can be described thus: Binding affinity to human FR-alpha receptor expressed in Chinese hamster RT16 cells assessed as antiproliferative activity measured as reduction in cell viability after 96 hrs by Cell-Titer Blue assay.
The nature of experiment [5]: Binding affinity to human FR-beta receptor expressed in Chinese hamster D4 cells assessed as antiproliferative activity measured as reduction in cell viability after 96 hrs by Cell-Titer Blue assay.
The nature of experiment [6]: Binding affinity to human RFC expressed in Chinese hamster PC43-10 cells assessed as antiproliferative activity measured as reduction in cell viability after 96 hrs by Cell-Titer Blue assay.

As usually defined, the IC50 is the concentration that inhibits the measured activity by half. Regarding `Nc1nc2[nH]c(CCC#Cc3ccc(C(=O)N[C@@H](CCC(=O)O)C(=O)O)cn3)cc2c(=O)[nH]1`, the IC50 in experiment [1] is more than 1000 nM; in experiment [2], more than 1000 nM; in experiment [3], more than 1000 nM; in experiment [4] it was 449 nM; in experiment [5] it was 839 nM; in experiment [6], more than 1000 nM.
Consider `Nc1nc2[nH]c(CCCCc3ccc(C(=O)N[C@@H](CCC(=O)O)C(=O)O)cn3)cc2c(=O)[nH]1`, for which the IC50 in experiment [1] is more than 1000 nM; in experiment [2], more than 1000 nM; in experiment [3], more than 1000 nM; in experiment [4], 15 nM; in experiment [5], 37 nM; in experiment [6] it was more than 1000 nM.
Turning to `Nc1nc2[nH]c(CCC#Cc3ccc(C(=O)N[C@@H](CCC(=O)O)C(=O)O)nc3)cc2c(=O)[nH]1`, the IC50 in experiment [1] is more than 1000 nM; in experiment [2], more than 1000 nM; in experiment [3], more than 1000 nM; in experiment [4] it was 4.4 nM; in experiment [5], 19 nM; in experiment [6] it was more than 1000 nM.
For `Nc1nc2[nH]c(CCCCc3cccc(C(=O)N[C@@H](CCC(=O)O)C(=O)O)n3)cc2c(=O)[nH]1`, the IC50 in experiment [1] was more than 1000 nM; in experiment [2], more than 1000 nM; in experiment [4], 186 nM; in experiment [5], more than 1000 nM; in experiment [6], more than 1000 nM.
Consider `Nc1nc2[nH]c(CCCCc3ccc(C(=O)N[C@@H](CCC(=O)O)C(=O)O)nc3)cc2c(=O)[nH]1`, for which the IC50 is 58 nM in experiment [3] and more than 1000 nM in experiment [6].
As to `Nc1nc2[nH]c(CCC#Cc3cccc(C(=O)N[C@@H](CCC(=O)O)C(=O)O)n3)cc2c(=O)[nH]1`, the IC50 in experiment [1], in experiment [2], in experiment [3], in experiment [4], in experiment [5] and in experiment [6] was more than 1000 nM throughout.
With `C#CCC(Cc1cnc2nc(N)nc(N)c2n1)c1ccc(C(=O)N[C@@H](CCC(=O)O)C(=O)O)cc1` (stereo partly specified) [CHEBI:71223], the IC50 was more than 1000 nM in experiment [1], 57 nM in experiment [3], 168 nM in experiment [4] and 0.69 nM in experiment [6].
`Nc1nc2[nH]c(CCCCc3ccc(C(=O)N[C@@H](CCC(=O)O)C(=O)O)cc3)cc2c(=O)[nH]1` [N-{4-[4-(2-Amino-4-oxo-4,7-dihydro-3H-pyrrolo[2,3-d]pyrimidin-6-yl)butyl]benzoyl}-L-glutamic Acid]: the IC50 in experiment [6] was more than 1000 nM.
